Key:
[1] = DPPH radical scavenging assay; assay type: biochemical; details: for DPPH Inhibitory%: acylselenourea analogs
Protocol: Different methods are available to quantify the antioxidant capacity of natural or novel molecules. Notable among these are the ABTS^•+ and DPPH^• methods, which measure the quenching efficiency in vitro for known concentrations of preformed radicals. In this work, the DPPH^• colorimetric assay was carried out. Measurements were recorded on a BioTeck PowerWave XS spectrophotometer (BioTeck Instruments, Winooski, VT, USA) and data were collected using KCJunior v.1.41. software (BioTeck Instruments, Winooski, VT, USA). Compounds with potent activity were selected to further determine their protective effect against ROS-induced cell death caused by H2O2.
DPPH colorimetric assay was performed to determine the in vitro radical scavenging activity of the acylselenourea derivatives. DPPH assay was performed as described by Svinyarov. For each acylselenourea, a stock solution of 1 mg/mL in dimethyl sulfoxide (DMSO) was made, and these solutions were used to prepare the different concentrations employed in the assay. The compounds were tested at two different concentrations (0.003 and 0.03 mg/mL). Intermediate solutions were prepared in methanol and a volume of 100 µL of each was added to each well of the plate. Then, 100 µL of DPPH^• (previously prepared at a concentration of 0.04 mg/mL in methanol and preserved in the dark) was added to the previous methanolic acylselenourea solutions. The discoloration of the purple radical to the yellow reduced form was followed at 517 nm at different time points (0, 5, 15, 30, 60, 90, and 120 min). Ascorbic acid and trolox were used as positive controls. All measurements were carried out in triplicate. Results are expressed as the percentage of the radicals scavenged, calculated using the following formula: (1) % DPPH radical scavenging=Acontrol - Asample/Acontrol × 100 where Acontrol refers to the absorbance of the negative control and Asample refers to the absorbance of the tested compounds. Results are expressed as percentage of DPPH radical scavenging ± SD.

DU-145 cells = test: Protective effects against H2O2-induced oxidative stress in DU-145 cells (MTT); assay type: cell-based, human; details: for Increase-fold: increase-fold of cell survival; for Cell growth inhibition (%): cells without compounds
Protocol: Cells were treated with the selected compounds and then oxidative damage to DU-145 cells was induced using different concentrations of H2O2 (200, 250 and 300 µM), and cell viability was assessed by the MTT method. Briefly, 2.5 × 10^4 DU-145 cells per well were added in 96-well plates. After 24 h of incubation, DMSO, 1.I, 2.I, 5.I, 7.II, 10.II, and ascorbic acid were added to each well at two different concentrations (0.0015 mg/mL and 0.0003 mg/mL) and incubated for 1 h. After that, H2O2 was added at the concentrations of 200, 250, and 300 µM, and the cells were incubated for 12 h to induce cell damage. MTT assay was used to measure cell viability. For each treatment, the mean cell viability was calculated from three independent experiments. The DMSO-treated controls were assigned with a cell viability value of 100% (Vcontrol). The results are expressed as a cell growth inhibition % caused by H2O2 and the increased fold of cell survival, as follows: • Cells without compounds, only treated with H2O2: (2) % Cell growth inhibition=Acontrol - Asample/Acontrol × 100
• Cells treated with compounds and H2O2:
(3) % Cell growth inhibition=Asample (compound) - Asample (compound+H2O2)/Acontrol × 100
(4) Increase-fold of cell survival=% cell growth inhibition (H2O2)/% cell growth inhibition (compound+ H2O2)
The standard error of the mean (SEM) was calculated in at least three independent experiments performed in quadruplicates.

[2] = tested on: HT-29 (colon) cancer cell line; test: MTT cell viability assay, HT-29; assay type: cell-based; details: Homo sapiens, HT-29, 48 h, read-out: Cell growth %; for activity at 10 µM: HT-29, 10 µM; for activity at 50 µM: HT-29, 50 µM
Protocol: (§1) Cell lines were purchased from the American Type Culture Collection (ATCC). Cell lines MDA-MB-231, HTB-54, DU-145, and BEAS-2B were cultured in RPMI 1640 medium (Gibco, Thermo Fisher Scientific, Gaithersburg, MD, USA) supplemented with 10% fetal bovine serum (FBS; Gibco), 100 units/mL penicillin, and […] streptomycin (Gibco). HT-29 cell line was grown in McCoy’s 5A (Gibco), 10% FBS, 100 units/mL penicillin, and 100 μg/mL streptomycin. Cells were maintained at 37 °C and 5% CO2. The culture medium was changed every three days.
(§2) The cell viability of each compound was measured by MTT colorimetric assay. Each compound was dissolved in DMSO at a concentration of 0.01 M. Each compound was tested at two different concentrations (10 and 50 µM) in MDA-MB-231 (breast), HTB-54 (lung), DU-145 (prostate), and HT-29 (colon) human cancer cell lines. Serial dilutions were prepared with supplemented culture medium. […] IC50 and selectivity indexes (SI) were determined.
(§3) Briefly, 1 × 10^4 tumor cells per well were grown in 96-well plates for 24 h. Then, these cells were incubated for 48 h with either DMSO (control) or a different concentration of each of the tested compounds. The cell viability was determined by adding 20 μL of MTT two hours and a half before the termination point. After this time, the culture medium was removed. The resulting formazan crystals were dissolved in 50 μL of DMSO, and the absorbance was measured at 570 nm. Results are expressed as % cell growth. The data were obtained from at least three independent experiments performed in quadruplicate.

[3] = tested on: HTB-54 (lung) cancer cell line; test: MTT cell viability assay, HTB-54; assay type: cell-based, human; details: Homo sapiens, HTB-54, 48 h; for activity at 10 µM: read-out: Cell growth %, HTB-54, 10 µM, 48 h, MTT; for activity at 50 µM: read-out: Cell growth %, HTB-54, 50 µM, 48 h, MTT
Protocol: as §1, §2, §3

[4] = tested on: DU-145 (prostate) cancer cell line; test: MTT cell viability assay, DU-145; assay type: cell-based, human; details: Homo sapiens, DU-145, 48 h; for activity at 10 µM: read-out: Cell growth %, DU-145, 10 µM, 48 h, MTT; for activity at 50 µM: read-out: Cell growth %, DU-145, 50 µM, 48 h, MTT
Protocol: as §1, §2, §3

[5] = tested on: MDA-MB-231 (breast) cancer cell line; test: MTT cell viability assay, MDA-MB-231; assay type: cell-based, human; details: Homo sapiens, MDA-MB-231, 48 h; for activity at 10 µM: read-out: Cell growth %, MDA-MB-231, 10 µM, 48 h, MTT; for activity at 50 µM: read-out: Cell growth %, MDA-MB-231, 50 µM, 48 h, MTT
Protocol: as §1, §2, §3

Compound | inhibition ([1]; 0.003 mg/mL, 0 min) [%] | inhibition ([1]; 0.003 mg/mL, 5 min) [%] | inhibition ([1]; 0.003 mg/mL, 15 min) [%] | inhibition ([1]; 0.003 mg/mL, 30 min) [%] | inhibition ([1]; 0.003 mg/mL, 60 min) [%] | inhibition ([1]; 0.003 mg/mL, 90 min) [%] | inhibition ([1]; 0.003 mg/mL, 120 min) [%] | inhibition ([1]; 0.03 mg/mL, 0 min) [%] | inhibition ([1]; 0.03 mg/mL, 5 min) [%] | inhibition ([1]; 0.03 mg/mL, 15 min) [%] | inhibition ([1]; 0.03 mg/mL, 30 min) [%] | inhibition ([1]; 0.03 mg/mL, 60 min) [%] | inhibition ([1]; 0.03 mg/mL, 120 min) [%] | DPPH Inhibitory% ([1]; 0.03 mg/mL, 90 min) [%] | activity at 10 µM [2] [%] | activity at 50 µM [2] [%] | activity at 10 µM [3] [%] | activity at 50 µM [3] [%] | activity at 10 µM [4] [%] | activity at 50 µM [4] [%] | other results
O=C1O[C@H]([C@@H](O)CO)C(O)=C1O [Asc. Acid, ascorbic acid, reference compound] | 33.5 ± 0.5 | 33.6 ± 0.4 | 34.5 ± 1.6 | 34.1 ± 1.1 | 34 ± 0.9 | 34 ± 0.8 | 34 ± 0.7 | 96.4 ± 0.2 | 96.4 ± 0.1 | 96.9 ± 0.5 | 96.9 ± 0.5 | 96.6 ± 0.1 | 96.6 ± 0.1 |  |  |  |  |  |  |  | inhibition ([1]; 0.03 mg/mL, 90 min): 96.6 ± 0.1%; Increase-fold (DU-145 cells; compound 0.0003 mg/mL, 200 µM H2O2, DU-145): 4.2 ± 0.4; Increase-fold (DU-145 cells; compound 0.0003 mg/mL, 250 µM H2O2, DU-145): 3.1 ± 0.7; Increase-fold (DU-145 cells; compound 0.0003 mg/mL, 300 µM H2O2, DU-145): 2.2 ± 0.1; Increase-fold (DU-145 cells; compound 0.0015 mg/mL, 200 µM H2O2, DU-145): 3.6 ± 0.3; Increase-fold (DU-145 cells; compound 0.0015 mg/mL, 250 µM H2O2, DU-145): 2.9 ± 0.7; Increase-fold (DU-145 cells; compound 0.0015 mg/mL, 300 µM H2O2, DU-145): 1.5 ± 0.2
C#CCNC(=[Se])NC(=O)c1ccco1 [Compound 1.III, N-(prop-2-in-1-ylcarbamoselenoyl)furan-2-carboxamide] | 1.5 ± 0.7 | 3.4 ± 0.6 | 4.9 ± 0.7 | 6.5 ± 0.7 | 8.5 ± 1 | 9.6 ± 0.9 | 10 ± 0.8 | 11.8 ± 1.7 | 15.2 ± 4.4 | 23.5 ± 3.9 | 31.2 ± 3.7 | 40.9 ± 4.3 | 48.1 ± 0.4 | 42.6 ± 0.6 | 84 ± 16.8 | 17.2 ± 4.2 | 76 ± 4.8 | 48 ± 4.2 | 42.4 ± 4.8 | 15.2 ± 1.2 | activity at 10 µM [5]: 66.3 ± 16.7%; activity at 50 µM [5]: 17.6 ± 9.3%
C=CCNC(=[Se])NC(=O)c1cccs1 [Compound 2.II, N-(allylcarbamoselenoyl)thiophene-2-carboxamide] | 0 | 6.4 ± 1.1 | 10.4 ± 1.2 | 13 ± 1.2 | 15.2 ± 1.2 | 16 ± 1.2 | 16.3 ± 1.2 | 24.4 ± 3 | 60.7 ± 2.5 | 75.8 ± 3.5 | 87.6 ± 4 | 96.7 ± 0.7 |  | 97.3 ± 0.8 | 107 ± 16.2 | 26.2 ± 5.1 | 35.9 ± 12.1 | 8.52 ± 4.8 | 63.4 ± 5.6 | 7.33 ± 4.6 | time to reach the highest DPPH inhibition ([1]; 0.03 mg/mL): 60 min; activity at 10 µM [5]: 79.9 ± 9.6%; activity at 50 µM [5]: 11.1 ± 5.9%
C=CCNC(=[Se])NC(=O)c1ccccc1 [Compound 5.II, N-(allylcarbamoselenoyl)benzamide] | 1.3 ± 1.7 | 4.5 ± 1.7 | 7.5 ± 1.7 | 10.4 ± 1.8 | 13.9 ± 1.9 | 16.2 ± 2 | 17.8 ± 2.1 | 13.5 ± 1.3 | 42.4 ± 1.5 | 62.7 ± 0.8 | 80.2 ± 1.1 | 97.2 ± 0.7 | 97.7 ± 1 | 97.4 ± 0.8 | 100 ± 16.6 | 23.9 ± 5 | 67.6 ± 14.9 | 16.9 ± 4.1 | 97.5 ± 18.5 | 10.3 ± 4.9 | time to reach the highest DPPH inhibition ([1]; 0.03 mg/mL): 60 min; activity at 10 µM [5]: 80.4 ± 8.4%; activity at 50 µM [5]: 15.6 ± 6%
C#CCNC(=[Se])NC(=O)c1ccccc1 [Compound 5.III, N-(prop-2-in-1-ylcarbamoselenoyl)benzamide] | 0.6 ± 1.2 | 2.9 ± 1 | 5.1 ± 1.3 | 7.2 ± 1.6 |  | 11.3 ± 2 | 12.3 ± 2.1 | 9.3 ± 1 | 9.8 ± 0.3 | 23 ± 0.3 | 34 ± 0.6 | 46.6 ± 0.9 | 60.2 ± 0.7 | 54.6 ± 0.8 | 70 ± 8.7 | 33.9 ± 4.5 | 76 ± 4.8 | 33.4 ± 8.6 | 80.8 ± 7.4 | 26.3 ± 6.5 | activity at 10 µM [5]: 78.5 ± 12%; activity at 50 µM [5]: 33.3 ± 6.5%
OO [Compound H2O2, H2O2, reference compound] |  |  |  |  |  |  |  |  |  |  |  |  |  |  |  |  |  |  |  |  | Cell growth inhibition (%) (DU-145 cells; only treated with 200 µM H2O2, DU-145, 12 h): 36.9 ± 6.9%; Cell growth inhibition (%) (DU-145 cells; only treated with 250 µM H2O2, DU-145, 12 h): 53.4 ± 6.1%; Cell growth inhibition (%) (DU-145 cells; only treated with 300 µM H2O2, DU-145, 12 h): 66.8 ± 6.3%
Cc1c(C)c2c(c(C)c1O)CCC(C)(C(=O)O)O2 (centres unmarked) [Trolox, trolox, reference compound] | 28.4 ± 1 | 29.2 ± 1 | 29.2 ± 0.9 | 29.2 ± 0.8 | 29.2 ± 0.8 | 29.2 | 29.1 | 90.8 ± 2.3 | 96.3 ± 0.1 | 96.3 ± 0.2 | 96.3 ± 0.2 | 96.2 ± 0.2 | 96.2 ± 0.2 |  |  |  |  |  |  |  | inhibition ([1]; 0.03 mg/mL, 90 min): 96.2 ± 0.2%

— article PMC10376326, “Novel Acylselenourea Derivatives: Dual Molecules with Anticancer and Radical Scavenging Activity” (Antioxidants, 2023)
